Measured values reported in patent publication US20260158017A1, “KIF18A INHIBITOR” (WIGEN BIOMEDICINE TECHNOLOGY (SHANGHAI) CO., LTD., priority 2021, published 2026).

Key:
[1] = tested on: HCT116 cells; experiment: In vitro anti-proliferative activity against HCT116 cells (intracellular ATP content, 72 h); type: cell-based; conditions: for IC50: Homo sapiens, HCT-116, 72 h after dosing
Method: Biological Example 3. In Vitro Anti-Proliferative Activity of the Compounds of the Present Invention Against HCT116 Cells
(§1) HCT116 cells were seeded on a 384-well plate at 3000 cells/well. After overnight adherence culture, DMSO or the compounds serially 1:5-diluted from 5 μM were added. The viability of the cells was assessed 72 h after dosing by measuring the intracellular ATP content. The inhibition percentages of viable cells by the compounds were calculated by comparing with the DMSO group, and the IC 50 values were also calculated.

[2] = tested on: HT-29 cells; experiment: In vitro anti-proliferative activity against HT-29 cells (intracellular ATP content, 72 h); type: cell-based; conditions: Homo sapiens, 72 h after dosing
Method: Biological Example 2. In Vitro Anti-Proliferative Activity of the Compounds of the Present Invention Against HT-29 Cells
as §1, with “HT-29” for “HCT116”, “IC50” for “IC 50”

[3] = tested on: HT29 subcutaneous xenograft tumor; experiment: In vivo pharmacodynamic study, mouse HT29 subcutaneous xenograft tumor model; set-up: species or system BALB/c nude mice; conditions: 80 mg/kg intragastric once daily; for Tumor volume on day 1 of treatment: baseline day 1; for TGI (tumor growth inhibition): day 28 vs day 1
Method: Biological Example 4. In Vivo Pharmacodynamic Study-Mouse HT29 Subcutaneous Xenograft Tumor Model
BALB/c nude mice were inoculated subcutaneously with 5×10^6 HT29 cells on the left dorsal side. After the tumors grew to 100-150 mm^3, the mice were randomly divided into the following groups for intragastric administration once daily: group 1: vehicle control group; group 2: compound 661 (80 mg/kg); group 3: compound 669 (80 mg/kg); group 4: compound 677 (80 mg/kg); group 5: compound 714 (80 mg/kg); group 6: compound 727 (80 mg/kg); group 7: compound 740 (80 mg/kg); and group 8: AMG650 (80 mg/kg). The tumor volume was measured twice weekly and at the end of treatment.

[4] = tested on: Histone H3 Ser10 sites in HT29 cells; experiment: Phosphorylation assay of histone H3 Ser10 sites in HT29 cells (immunofluorescence assay); type: cell-based; conditions: Homo sapiens, HT-29, 6 h after addition, FITC/DAPI ratio
Method: Biological Example 5. Phosphorylation Assay of Histone H3 Ser10 Sites in HT29 Cells (Immunofluorescence Assay)
HT29 cells were seeded in a 96-well plate (Fisher 160376) at 8000 cells/well. The next day, the serially diluted compounds were added. 6 h after the addition of the compounds, the cells were washed once with 1×PBS, immobilized with 4% PFA for 15 min, further washed three times with 1×PBS, and permeabilized with 0.02% Triton-X100 for 10 min. A blocking buffer was then added for blocking for 15-30 min, and 1:3000-diluted primary antibodies (Phospho-Histone H3 (Ser10) (D7N8E) XP® Rabbit mAb #53348) were added. The plate was placed at 4° C. overnight. The next day, the cells were washed three times with 1×PBS, and 1:1000-diluted secondary antibodies (Fluorescein (FITC)-conjugated Affinipure Goat Anti-Rabbit IgG (H+L)) were added. The cells were incubated in the dark for 1-2 h and washed three times with 1×PBS. The nuclei were stained with DAPI, and after the staining was completed, photographs were taken using an MD ImageXpress Pico personal high-content imaging analysis system. The ratio of phosphorylation (FITC/DAPI) at H3 Ser10 sites in HT29 cells was quantified. To evaluate the effects of the compounds on the mitosis phase of HT29 cells, the EC50 values of the compounds were calculated.

Structure (SMILES)	Anti-proliferative activity against HCT116 cells (in words) [1]	IC50 [1]	IC50 [2]	Tumor volume on day 1 of treatment [3]	Tumor volume on day 28 of treatment [3]	TGI (tumor growth inhibition) [3]	EC50 [4]
Cc1cc(NC(=O)c2ccc(NS(=O)(=O)CCO)cc2N2CCC3(CC2)CC3)nc(N2CCC(F)(F)CC2)n1 [AMG650, reference compound]	neither the compounds of the present invention nor AMG650 have anti-proliferative activity	> 10000 nM	109 nM	121 mm^3	649 mm^3	64%	52.3 nM
COc1ccc(NC(=O)c2ccc(NS(=O)(=O)CCOC(C)=O)cc2N2CCC3(CC2)CC3)nc1N1CCC(F)(F)CC1 [Compound 661]		> 10000 nM	25.8 nM	121 mm^3	704 mm^3	61%	23.7 nM
